How the values were obtained:
[1] = biological target: T1, human γ-secretase complex, APP as substrate (Homo sapiens, UniProt P49768); assay: β-galactosidase assay of γ-secretase-expressing yeast with related-art GSI, APP substrate; format: cell-based
T1 construct: substrate APPC55-Gal4, β-galactosidase reporter
Method: The yeast expressing the γ-secretase complex, the substrate APPC55-Gal4, and the three-finger toxin produced in the foregoing was inoculated in 1.5 mL of a SD-LWU medium, and the resultant was shake-cultured (180 rpm) at 30 °C until its turbidity became from 0.8 to 1.0. After that, the cultured product was centrifuged (15,000 rpm, 3 minutes, room temperature), and cells were recovered. The cells were washed with 1 mL of cooling water, and were then suspended in 30 μL of a Lysis buffer (20 mM Tris-HCl, pH: 8.0, 10 mM MgCl2, 50 mM KCl, 1 mM EDTA, 5% glycerol, and 1 mM DTT), followed by the addition of an appropriate amount of acid-treated glass beads (425 μm to 600 μm, Sigma-Aldrich Co. LLC) thereto. After that, the mixture was stirred with a vortex mixer so that the cells were crushed. The crushed liquid was centrifuged (15,000 rpm, 10 minutes, 4 °C) to provide a lysate. 80 Microliters of 4 mg/ml ortho-nitrophenyl-β-galactoside (ONPG) was added to the mixed liquid of 10 μL of the lysate and 400 μL of a Z buffer (60 mM Na2HPO4, 40 mM NaH2PO4-2H2O, 10 mM KCl, 1 mM MgSO4-7H2O, and 0.27% 2-mercaptoethanol) to start a reaction. […] After that, the absorbance (A420) of nitrophenol produced in the reaction liquid at 420 nm was measured. Further, the protein concentration of the lysate was determined by a Bradford method (Bio-Rad Laboratories, Inc.), and β-galactosidase activity was calculated [β-galactosidase unit/mg protein=1,000×A420/{time (min)×protein concentration (mg/μL)×liquid amount (μL)}].

[2] = biological target: T2, human γ-secretase complex, Notch1 as substrate (Homo sapiens, UniProt P49768); assay: β-galactosidase assay of γ-secretase-expressing yeast with related-art GSI, Notch substrate; format: cell-based; conditions: yeast (FIG. 7)
T2 construct: substrate mouse Notch1(1704-1755)-Gal4, β-galactosidase reporter
Method: The yeast expressing the γ-secretase complex, the substrate Notch-Gal4, and the three-finger toxin produced in the foregoing was inoculated in 15 mL of a SD-LWU medium, and the resultant was shake-cultured (180 rpm) at 30 °C until its turbidity became from 0.8 to 1.0. After that, a 1.5 mL aliquot of the cultured product was dispensed and centrifuged (15,000 rpm, 3 minutes, room temperature), and cells were recovered. The cells were washed with 1 mL of cooling water, and were then suspended in 30 μL of a Lysis buffer (20 mM Tris-HCl, pH: 8.0, 10 mM MgCl2, 50 mM KCl, 1 mM EDTA, 5% glycerol, and 1 mM DTT), followed by the addition of an appropriate amount of acid-treated glass beads (425 μm to 600 μm, Sigma-Aldrich Co. LLC) thereto. After that, the mixture was stirred with a vortex mixer so that the cells were crushed. The crushed liquid was centrifuged (15,000 rpm, 10 minutes, 4 °C) to provide a lysate. […] After that, the absorbance (A420) of nitrophenol produced in the reaction liquid at 420 nm was measured. Further, the protein concentration of the lysate was determined by a Bradford method (Bio-Rad Laboratories, Inc.), and β-galactosidase activity was calculated: β-galactosidase unit/mg protein=1,000×A420/{time (min)×protein concentration (mg/μL)×liquid amount (μL)}.

γ-secretase [3] = conditions: phase III clinical trials; trials stopped; cited from earlier work
γ-secretase [4] = conditions: verification experiment; pseudo-inhibitor; cited from earlier work

## C[C@H](NC(=O)Cc1cc(F)cc(F)c1)C(=O)N[C@H](C(=O)OC(C)(C)C)c1ccccc1 [DAPT]
[1]; yeast (FIG. 7)
  suppression of the cleavage of the APP: suppressed the cleavage of each of the APP and the Notch
[2]
  suppression of the cleavage of the Notch: suppressed the cleavage of each of the APP and the Notch

## NC(=O)[C@@H](CCC(F)(F)F)N(Cc1ccc(-c2ncon2)cc1F)S(=O)(=O)c1ccc(Cl)cc1 [avagacestat]
γ-secretase [3]
  serious side effects and deterioration of a cognitive function: serious side effects and the deterioration of a cognitive function were observed

## O=S(=O)(N[C@H](CO)C(C(F)(F)F)C(F)(F)F)c1ccc(Cl)s1 [begacestat]
[1]; 1 μM, 3 μM, and 10 μM, wild-type yeast and pdr1Δpdr3Δ strain, vs mock with dimethyl sulfoxide (FIG. 7)
  suppression of the cleavage of the APP versus the cleavage of the Notch: the suppression of the cleavage of the APP was stronger than the suppression of the cleavage of the Notch
[1]; yeast, APP versus Notch cleavage (FIG. 7)
  APP-specific cleavage-suppressing effect: APP-specific inhibition by begacestat was observed

## CC(C)[C@H](O)C(=O)N[C@@H](C)C(=O)N[C@@H]1C(=O)N(C)CCc2ccccc21 [semagacestat]
γ-secretase [4]
  discharge of a decomposition product to the outside of a cell: inhibits the discharge of a decomposition product to the outside of a cell
  inhibition of Aβ production: does not inhibit Aβ production
γ-secretase [3]
  serious side effects and deterioration of a cognitive function: serious side effects and the deterioration of a cognitive function were observed

From patent publication US20260347435A1, “y-SECRETASE INHIBITOR, Aß-PEPTIDE PRODUCTION INHIBITOR, AND PHARMACEUTICAL” (priority 2022, published 2026)
